Assay results: ChEMBL document CHEMBL5120923, “Tamarixetin Attenuated the Virulence of Staphylococcus aureus by Directly Targeting Caseinolytic Protease P” (J Nat Prod, 2022)
≈ marks a conversion by molar mass, not a printed value. Calls of active or inactive are those of the source. The rule behind the calls is not given here.

Legend:
Staphylococcus aureus [1] = assay: Antibacterial activity against methicillin-resistant Staphylococcus aureus USA300 assessed as inhibition of bacteria-mediated hemolytic activity on rabbit erythrocytes at 128 ug/ml incubated for 30 mins by hemolysis assay; format: functional; conditions: USA300, 0.5 h
Staphylococcus aureus [2] = assay: Synergistic antibacterial activity against methicillin-resistant Staphylococcus aureus USA300 assessed as cefotaxime MIC by checker board method; format: functional
Staphylococcus aureus [3] = assay: (§1) Antibacterial activity against methicillin-resistant Staphylococcus aureus USA300 infected in C57BL/6J mouse pneumonia model assessed as reduction in bacterial load in lung at 100 mg/Kg, sc administered every 12 hrs measured after 48 hrs in presence of cefotaxime (reference value: 10.04+/- 0.56 log10CFU/g); format: functional
Staphylococcus aureus [4] = assay: Antibacterial activity against methicillin-resistant Staphylococcus aureus USA300 incubated for 24 hrs by microdilution broth assay; format: functional
HepG2 = assay: Cytotoxicity against human HepG2 cells at 64 ug/ml by MTT assay; format: toxicity, cell-based; conditions: dose 64 µg/ml
Staphylococcus aureus [5] = assay: Synergistic antibacterial activity against methicillin-resistant Staphylococcus aureus USA300 infected in C57BL/6J mouse pneumonia model assessed as lethality at 50 mg/Kg, sc administered every 12 hrs measured after 72 hrs in presence of cefotaxime (Rvb =40%); format: functional
Staphylococcus aureus [6] = assay: Binding affinity to methicillin-resistant Staphylococcus aureus USA300 ClpP assessed as change in thermal stability by measuring protein deposition at 64 ug/ml by measured after 1 hr by cellular thermal shift assay (reference value: 65 degC); conditions: dose 64.0 µg/ml
HEK-293T = assay: Cytotoxicity against human HEK-293T cells at 64 ug/ml by MTT assay; format: toxicity, cell-based; conditions: dose 64 µg/ml
Staphylococcus aureus [7] = assay: (§2) Antibacterial activity against methicillin-resistant Staphylococcus aureus USA300 infected in C57BL/6J mouse pneumonia model assessed as reduction in infiltration of inflammatory cells in alveoli at 100 mg/Kg, sc administered every 12 hrs measured after 48 hrs by hematoxylin and eosin staining based histopathological analysis; format: functional, organism-based
Staphylococcus aureus [8] = assay: Antibacterial activity against methicillin-resistant Staphylococcus aureus USA300 infected in C57BL/6J mouse pneumonia model assessed as reduction in TNF-alpha level in lung at 100 mg/Kg, sc administered every 12 hrs measured after 48 hrs by ELISA; format: functional, organism-based
Staphylococcus aureus [9] = assay: Inhibition of PSM-alpha gene transcription level in methicillin-resistant Staphylococcus aureus USA300 at 64 ug/ml by qPCR analysis; format: functional; conditions: dose 64.0 µg/ml
Staphylococcus aureus [10] = assay: Inhibition of methicillin-resistant Staphylococcus aureus USA300 ClpP using Suc-LY-AMC as fluorescent substrate at 64 ug/ml preincubated for 1 hr followed by substrate addition and measured after 1 hr by FRET assay relative to control; conditions: dose 64.0 µg/ml, time 2.0 hrs
Staphylococcus aureus [11] = assay: Antibacterial activity against methicillin-resistant Staphylococcus aureus USA300 harboring delta ClpP mutant infected in C57BL/6J mouse pneumonia model assessed as reduction in mortality rate at 50 mg/Kg, sc administered every 12 hrs measured after 72 hrs (Rvb =80%); format: functional; parameters: scale not given: the % may be the effect or the level left
Staphylococcus aureus [12] = assay: Inhibition of hla gene transcription level in methicillin-resistant Staphylococcus aureus USA300 at 64 ug/ml by qPCR analysis; format: functional; conditions: dose 64.0 µg/ml
Staphylococcus aureus [13] = assay: Antibacterial activity against methicillin-resistant Staphylococcus aureus USA300 infected in C57BL/6J mouse pneumonia model assessed as reduction in IL-6 level in lung at 100 mg/Kg, sc administered every 12 hrs measured after 48 hrs by ELISA; format: functional, organism-based
Staphylococcus aureus [14] = assay: as §1, with “Synergistic antibacterial” for “Antibacterial”, “7.72 +/- 0.50” for “10.04+/- 0.56”; format: functional
Staphylococcus aureus [15] = assay: Antibacterial activity against methicillin-resistant Staphylococcus aureus USA300 harboring ClpP delta mutant assessed as inhibition of bacteria-mediated hemolytic activity on rabbit erythrocytes at 128 ug/ml incubated for 30 mins by hemolysis assay; format: functional; conditions: USA300, 0.5 h
Staphylococcus aureus [16] = assay: Inhibition of PVL protein expression in methicillin-resistant Staphylococcus aureus Newman incubated for overnight by western blot analysis; format: functional; conditions: DDE = dose-dependent effect
Staphylococcus aureus [17] = assay: as §2, with “Synergistic antibacterial activity against” for “Antibacterial activity against”, “48 hrs in presence of cefotaxime by hematoxylin” for “48 hrs by hematoxylin”; format: functional, organism-based
Staphylococcus aureus [18] = assay: Inhibition of spa gene transcription level in methicillin-resistant Staphylococcus aureus USA300 at 64 ug/ml by qPCR analysis; format: functional; conditions: dose 64.0 µg/ml
Staphylococcus aureus [19] = assay: Inhibition of agr gene transcription level in methicillin-resistant Staphylococcus aureus USA300 at 64 ug/ml by qPCR analysis; format: functional; conditions: dose 64.0 µg/ml
Staphylococcus aureus [20] = assay: Inhibition of RNAIII gene transcription level in methicillin-resistant Staphylococcus aureus USA300 at 64 ug/ml by qPCR analysis; format: functional; conditions: dose 64.0 µg/ml
[21] = Inhibition of agrA gene transcription level in methicillin-resistant Staphylococcus aureus USA300 at 64 ug/ml by qPCR analysis; format: functional
Staphylococcus aureus [22] = assay: Binding affinity to methicillin-resistant Staphylococcus aureus USA300 ClpP assessed as decrease in thermal stability of the protein at 16 to 64 ug/ml by SYPRO orange thermal shift assay; conditions: dose 16-64 µg/ml
Staphylococcus aureus [23] = assay: Synergistic […] activity against Cmethicillin-resistant Staphylococcus aureus USA300 assessed as fractional inhibitory concentration index at 64 ug/ml in presence of cefotaxime by checker board method; format: functional; conditions: dose 64 µg/ml
[24] = Binding affinity to methicillin-resistant Staphylococcus aureus USA300 ClpP assessed as dissociation constant by surface plasmon resonance assay
A549 = assay: Cytotoxicity against human A549 cells at 64 ug/ml by MTT assay; format: toxicity, cell-based; conditions: dose 64 µg/ml
Staphylococcus aureus [25] = assay: Inhibition of methicillin-resistant Staphylococcus aureus USA300 ClpP assessed as upregulation of urease production at 64 ug/ml incubated for 4 hr by spectrophotometry; conditions: dose 64.0 µg/ml
Staphylococcus aureus [26] = assay: Binding affinity to methicillin-resistant Staphylococcus aureus USA300 ClpP assessed as dissociation rate constant by surface plasmon resonance assay
[27] = Inhibition of methicillin-resistant Staphylococcus aureus USA300 ClpP using Suc-LY-AMC as fluorescent substrate preincubated for 1 hr followed by substrate addition and measured after 1 hr by FRET assay
Staphylococcus aureus [28] = assay: Inhibition of PVL protein expression in methicillin-resistant Staphylococcus aureus USA300 incubated for overnight by western blot analysis; format: functional; conditions: DDE = dose-dependent effect
Staphylococcus aureus [29] = assay: Antibacterial activity against methicillin-resistant Staphylococcus aureus USA300 infected in C57BL/6J mouse pneumonia model assessed as reduction in IFN-gamma level in lung at 100 mg/Kg, sc administered every 12 hrs measured after 48 hrs by ELISA; format: functional, organism-based
Staphylococcus aureus [30] = assay: Inhibition of pvl gene transcription level in methicillin-resistant Staphylococcus aureus USA300 at 64 ug/ml by qPCR analysis; format: functional; conditions: dose 64.0 µg/ml
Staphylococcus aureus [31] = assay: as §2, with “USA300 harboring delta ClpP mutant” for “USA300”; format: functional, organism-based
Staphylococcus aureus [32] = assay: Binding affinity to methicillin-resistant Staphylococcus aureus USA300 ClpP assessed as association rate constant by surface plasmon resonance assay

COc1ccc(-c2oc3cc(O)cc(O)c3c(=O)c2O)cc1O [TAMARIXETIN]
inhibition at 128 µg/mL (Staphylococcus aureus [1]): > 55% | MIC (Staphylococcus aureus [2]): 16 µg/mL | Activity (Staphylococcus aureus [3]): 7.03 log10CFU/g | MIC (Staphylococcus aureus [4]): 512 µg/mL (≈ 1620 µM) | Activity (HepG2): Non-Toxic | Activity (Staphylococcus aureus [5]): 20% | Activity (Staphylococcus aureus [6]): Active | Activity (HEK-293T): Non-Toxic | Activity (Staphylococcus aureus [7]): Active | Activity (Staphylococcus aureus [8]): Active | inhibition (Staphylococcus aureus [9]): Active | inhibition (Staphylococcus aureus [10]): 2.5% | Activity (Staphylococcus aureus [11]): 70% | inhibition (Staphylococcus aureus [12]): Active | Activity (Staphylococcus aureus [13]): Active | Activity (Staphylococcus aureus [14]): 7.03 log10CFU/g | inhibition at 128 µg/mL (Staphylococcus aureus [15]): 85.8% | inhibition (Staphylococcus aureus [16]): Dde | Activity (Staphylococcus aureus [17]): Active | inhibition (Staphylococcus aureus [18]): Active | inhibition (Staphylococcus aureus [19]): Active | inhibition (Staphylococcus aureus [20]): Active | inhibition at 64 µg/mL [21]: 83.9% | ΔTm (Staphylococcus aureus [22]): > 2 °C | fractional inhibitory concentration index (FICI) (Staphylococcus aureus [23]): 0.375 | Kd [24]: 2.52 µM | Activity (A549): Non-Toxic | inhibition (Staphylococcus aureus [25]): Active | Kdiss (Staphylococcus aureus [26]): 4.26 10^-3/s | IC50 [27]: 49.7 µM | inhibition (Staphylococcus aureus [28]): Dde | Activity (Staphylococcus aureus [29]): Active | inhibition (Staphylococcus aureus [30]): Active | Activity (Staphylococcus aureus [31]): Active | Ka (Staphylococcus aureus [32]): 1.69 10^3/M/s
